According to article PMC8400343, “Synthesis and Evaluation of the Antidepressant-like Properties of HBK-10, a Novel 2-Methoxyphenylpiperazine Derivative Targeting the 5-HT1A and D2 Receptors” (Pharmaceuticals, 2021):

Tests used:
human 5-HT2A receptor = target: T1, human 5-HT2A receptor (Homo sapiens, UniProt P28223); assay: Radioligand binding, [3H]-ketanserin, CHO-K1 membranes; settings: CHO-K1 cells, mean ± SEM, read-out: Serotonergic pKi 5-HT2A (converted)
T1 construct: expressed in transfected cells; host or cells: CHO-K1 (membranes)
T1 sequence (P28223 whole entry): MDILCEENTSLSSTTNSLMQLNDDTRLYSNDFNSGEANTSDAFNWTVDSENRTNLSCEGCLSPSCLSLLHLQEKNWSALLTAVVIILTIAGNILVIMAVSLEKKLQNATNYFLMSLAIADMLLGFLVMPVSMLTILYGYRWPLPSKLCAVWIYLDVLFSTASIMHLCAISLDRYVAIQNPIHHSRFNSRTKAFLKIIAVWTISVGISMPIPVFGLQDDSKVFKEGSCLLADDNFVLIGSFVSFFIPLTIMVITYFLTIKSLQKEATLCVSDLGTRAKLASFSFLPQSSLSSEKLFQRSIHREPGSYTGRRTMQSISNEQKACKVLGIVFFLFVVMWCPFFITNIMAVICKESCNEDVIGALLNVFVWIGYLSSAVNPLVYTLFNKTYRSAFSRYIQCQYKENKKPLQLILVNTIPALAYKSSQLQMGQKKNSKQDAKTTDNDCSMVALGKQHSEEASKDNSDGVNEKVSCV
Protocol: (§1) Radioligand binding was performed on membranes from CHO-K1 cells stably transfected with the human 5-HT1A, 5-HT2A, 5-HT6, or 5-HT7 receptors. […] Binding experiments were conducted in 96-well microplates, and the reaction mix included the solution of the test compound, radioligand, and diluted membranes or the tissue suspension.
(§2) The reaction was terminated by rapid filtration through GF/B or GF/C filter mate presoaked with 0.3% polyethyleneimine for 30 min. Ten rapid washes with 200 µl 50 mM Tris buffer (4 °C, pH 7.4) were performed using an automated harvester system Harvester-96 MACH III FM (Tomtec). […] Radioactivity was counted in the MicroBeta2 scintillation counter (PerkinElmer) at approximately 30% efficiency. […] A single assay was performed with each compound concentrations in duplicate, and the whole assay was repeated in a three independent experiments.

human 5-HT1A receptor = target: T2, human 5-HT1A receptor (Homo sapiens, UniProt P08908); assay: Radioligand binding, [3H]8-OH-DPAT, CHO-K1 membranes; settings: CHO-K1 cells, mean ± SEM, read-out: Serotonergic pKi 5-HT1A (converted)
T2 construct: expressed in transfected cells; host or cells: CHO-K1 (membranes)
T2 sequence (P08908 1-422): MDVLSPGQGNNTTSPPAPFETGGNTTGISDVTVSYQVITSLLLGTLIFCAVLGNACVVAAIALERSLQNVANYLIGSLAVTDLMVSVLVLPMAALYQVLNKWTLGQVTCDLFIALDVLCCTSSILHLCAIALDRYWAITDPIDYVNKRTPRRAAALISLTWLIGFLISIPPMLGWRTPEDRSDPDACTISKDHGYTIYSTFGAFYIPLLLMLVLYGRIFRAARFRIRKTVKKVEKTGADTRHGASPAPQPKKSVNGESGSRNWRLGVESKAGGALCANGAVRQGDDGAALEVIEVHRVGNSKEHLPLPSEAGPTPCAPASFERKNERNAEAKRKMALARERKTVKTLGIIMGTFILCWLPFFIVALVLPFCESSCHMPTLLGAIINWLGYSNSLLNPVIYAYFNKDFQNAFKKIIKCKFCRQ
Protocol: as §1, §2

[1] = target: T3, serotonin transporter (SERT) (Rattus norvegicus, UniProt P31652); assay: Radioligand binding, [3H]-citalopram, rat cortex tissue; settings: mean ± SEM, read-out: Serotonergic pKi SERT (converted)
T3 construct: from tissue; host or cells: rat cortex
T3 sequence (P31652 whole entry): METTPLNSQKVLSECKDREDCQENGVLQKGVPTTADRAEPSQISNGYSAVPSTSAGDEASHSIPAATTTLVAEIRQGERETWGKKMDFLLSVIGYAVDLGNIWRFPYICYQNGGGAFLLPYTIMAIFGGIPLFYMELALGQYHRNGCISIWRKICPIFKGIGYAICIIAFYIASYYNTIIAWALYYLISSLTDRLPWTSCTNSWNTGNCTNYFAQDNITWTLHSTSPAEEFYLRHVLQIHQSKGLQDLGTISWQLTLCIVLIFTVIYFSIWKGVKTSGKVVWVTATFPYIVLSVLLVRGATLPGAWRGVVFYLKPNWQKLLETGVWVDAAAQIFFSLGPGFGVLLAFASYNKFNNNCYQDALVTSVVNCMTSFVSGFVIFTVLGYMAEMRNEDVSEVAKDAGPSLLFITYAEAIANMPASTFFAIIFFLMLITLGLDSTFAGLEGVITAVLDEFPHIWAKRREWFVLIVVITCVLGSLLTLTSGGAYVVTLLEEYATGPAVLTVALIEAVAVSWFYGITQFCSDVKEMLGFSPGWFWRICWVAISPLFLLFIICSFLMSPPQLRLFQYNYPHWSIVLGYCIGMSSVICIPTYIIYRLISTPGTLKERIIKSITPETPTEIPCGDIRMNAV
Protocol: as §1, §2

CCC(CN1CCN(c2ccccc2OC)CC1)NCCCOc1c(C)cccc1C.Cl.Cl (stereo not drawn) [HBK-10, N-(3-(2,6-dimethylphenoxy)propyl)-1-(4-(2-methoxyphenyl)piperazin-1-yl)butan-2-amine dihydrochloride]
Ki (human 5-HT2A receptor): 191 nM
Ki (human 5-HT1A receptor): 5.13 nM
Ki [1]: 3.72 µM
